Measurements: patent US20210261621A1, “Preparation of Dilipid Polymixins and Use Thereof as Antimicrobial Adjuvants” (priority 2018, published 2021)
Where two headings read alike, the source gives them in different places. Positions of bridges follow the written chain, without caps; N, C: chain ends. Non-standard residues stand in square brackets, D forms with d. Residues, ends and D or L forms follow the SMILES beside them. *: point of attachment. Benzoyl(4-Ph) = O=C(c1ccc(-c2ccccc2)cc1)*; Dab = NCC[C@H](N)C(=O)O

Columns and labels:
[1] = tested on: pig erythrocytes; assay: Hemolytic assay; conditions: for % Hemolysis at 512 μg/mL of polymyxin / MHC5, minimum concentration that resulted in 5% red blood cell hemolysis: pig erythrocytes, 1 h at 37° C.
Protocol: The ability of the compounds to lyse eukaryotic red blood cells was measured by the amount of hemoglobin released upon incubation with pig erythrocytes, following a published protocol [30]. Briefly, fresh pig blood (generously provided by Dr. Richard Hodges, Director of Animal Care and Veterinary Services of the University of Manitoba) drawn from a pig's antecubital vein was centrifuged at 1000 g for 5 min at 4° C., washed with phosphate-buffered saline (PBS) three times, and re-suspended in the same buffer, consecutively. Compounds at study were 2-fold serially diluted in PBS on a 96-well plate and mixed with equal volumes of erythrocyte solution. Post 1 h incubation at 37° C., the intact cells were pelleted by centrifugation at 1000 g for 5 min at 4° C. Resulting supernatant was then transferred to a new 96-well plate. The hemoglobin released was then measured via an EMax Plus microplate reader (Molecular Devices, USA) at 570 nm wavelength. Erythrocytes in PBS with or without 0.1% Triton X-100 were used as positive or negative control, respectively.

[2] = tested on: P. aeruginosa PAO1; parameters: MICDrug / MICDrug in combo / MIC of adjuvant in combo: unit not given beside the values
[3] = combination with Chloramphenicol

With CC(C)C[C@@H]1NC(=O)[C@@H](Cc2ccccc2)NC(=O)[C@H](CCN)NC(=O)[C@@H](NC(=O)[C@H](CCN)NC(=O)[C@@H](NC(=O)[C@H](CCNC(=O)c2ccc(-c3ccccc3)cc2)NC(=O)c2ccc(-c3ccccc3)cc2)[C@@H](C)O)CCNC(=O)[C@H]([C@@H](C)O)NC(=O)[C@H](CCN)NC(=O)[C@H](CCN)NC1=O [Compound 5, Dibiphenyl-4-Carboxylic Acid (Di-Biphenyl) Polymyxin] ({Benzoyl(4-Ph)}-[Dab](Benzoyl(4-Ph))T[Dab][Dab][Dab][dF]L[Dab][Dab]T; lactam 4-C) the “% Hemolysis at 512 μg/mL of polymyxin” value [1] was 13.1 ± 1.4%, the “MHC5, minimum concentration that resulted in 5% red blood cell hemolysis” value [1] was 128 µg/mL and the “MIC of adjuvant alone (MIC1, MIC2, MIC3, MIC4, MIC5, MICPMBN)” value ([2]; adjuvant alone, one value per checkerboard, in µg/mL) was 16. For the same compound, the FIC index ([2]; combination with Aztreonam) was 0.62, the Interpretation ([2]; combination with Aztreonam) was “Additive (An FIC index of ≤0.5, 0.5<x≤4, or >4 denotes for synergistic, additive or antagonistic interaction, respectively)” and the FIC index ([2]; combination with Ceftazidime) was 0.62. For the same compound, the Interpretation ([2]; combination with Ceftazidime) was “Additive (An FIC index of ≤0.5, 0.5<x≤4, or >4 denotes for synergistic, additive or antagonistic interaction, respectively)”, the FIC index [2, 3] was 0.50 and the Interpretation [2, 3] was “Synergy (An FIC index of ≤0.5, 0.5<x≤4, or >4 denotes for synergistic, additive or antagonistic interaction, respectively)”. The FIC index ([2]; combination with Ciprofloxacin) was 1.00, the Interpretation ([2]; combination with Ciprofloxacin) was “Additive (An FIC index of ≤0.5, 0.5<x≤4, or >4 denotes for synergistic, additive or antagonistic interaction, respectively)” and the FIC index ([2]; combination with Clindamycin) was 0.53. For the same compound, the Interpretation ([2]; combination with Clindamycin) was “Additive (An FIC index of ≤0.5, 0.5<x≤4, or >4 denotes for synergistic, additive or antagonistic interaction, respectively)”, the FIC index ([2]; combination with Doripenem) was 1.00 and the Interpretation ([2]; combination with Doripenem) was “Additive (An FIC index of ≤0.5, 0.5<x≤4, or >4 denotes for synergistic, additive or antagonistic interaction, respectively)”. The FIC index ([2]; combination with Doxycycline) was 0.53, the Interpretation ([2]; combination with Doxycycline) was “Additive (An FIC index of ≤0.5, 0.5<x≤4, or >4 denotes for synergistic, additive or antagonistic interaction, respectively)” and the FIC index ([2]; combination with Fosfomycin) was 0.56. The Interpretation ([2]; combination with Fosfomycin) was “Additive (An FIC index of ≤0.5, 0.5<x≤4, or >4 denotes for synergistic, additive or antagonistic interaction, respectively)”, the FIC index ([2]; combination with Gentamicin) was 2.01 and the Interpretation ([2]; combination with Gentamicin) was “Additive (An FIC index of ≤0.5, 0.5<x≤4, or >4 denotes for synergistic, additive or antagonistic interaction, respectively)”. For the same compound, the FIC index ([2]; combination with Linezolid) was 0.53, the Interpretation ([2]; combination with Linezolid) was “Additive (An FIC index of ≤0.5, 0.5<x≤4, or >4 denotes for synergistic, additive or antagonistic interaction, respectively)” and the FIC index ([2]; combination with Meropenem) was 1.00. The Interpretation ([2]; combination with Meropenem) was “Additive (An FIC index of ≤0.5, 0.5<x≤4, or >4 denotes for synergistic, additive or antagonistic interaction, respectively)”, the FIC index ([2]; combination with Minocycline) was 0.62 and the Interpretation ([2]; combination with Minocycline) was “Additive (An FIC index of ≤0.5, 0.5<x≤4, or >4 denotes for synergistic, additive or antagonistic interaction, respectively)”. For the same compound, the FIC index ([2]; combination with Moxifloxacin) was 0.75, the Interpretation ([2]; combination with Moxifloxacin) was “Additive (An FIC index of ≤0.5, 0.5<x≤4, or >4 denotes for synergistic, additive or antagonistic interaction, respectively)” and the FIC index ([2]; combination with Novobiocin) was 0.50. For the same compound, the Interpretation ([2]; combination with Novobiocin) was “Synergy (An FIC index of ≤0.5, 0.5<x≤4, or >4 denotes for synergistic, additive or antagonistic interaction, respectively)”, the FIC index ([2]; combination with Piperacillin) was 1.00 and the Interpretation ([2]; combination with Piperacillin) was “Additive (An FIC index of ≤0.5, 0.5<x≤4, or >4 denotes for synergistic, additive or antagonistic interaction, respectively)”. For the same compound, the Interpretation ([2]; combination with Pleuromutilin) was “Additive (An FIC index of ≤0.5, 0.5<x≤4, or >4 denotes for synergistic, additive or antagonistic interaction, respectively)”, the FIC index ([2]; combination with Rifampicin) was 0.31 and the Interpretation ([2]; combination with Rifampicin) was “Synergy (An FIC index of ≤0.5, 0.5<x≤4, or >4 denotes for synergistic, additive or antagonistic interaction, respectively)”. The FIC index ([2]; combination with Streptomycin) was 1.00, the Interpretation ([2]; combination with Streptomycin) was “Additive (An FIC index of ≤0.5, 0.5<x≤4, or >4 denotes for synergistic, additive or antagonistic interaction, respectively)” and the FIC index ([2]; combination with Tobramycin) was 1.01. For the same compound, the Interpretation ([2]; combination with Tobramycin) was “Additive (An FIC index of ≤0.5, 0.5<x≤4, or >4 denotes for synergistic, additive or antagonistic interaction, respectively)”, the FIC index ([2]; combination with Trimethoprim) was 0.62 and the Interpretation ([2]; combination with Trimethoprim) was “Additive (An FIC index of ≤0.5, 0.5<x≤4, or >4 denotes for synergistic, additive or antagonistic interaction, respectively)”. For the same compound, the FIC index ([2]; combination with Vancomycin) was 0.51, the Interpretation ([2]; combination with Vancomycin) was “Additive (An FIC index of ≤0.5, 0.5<x≤4, or >4 denotes for synergistic, additive or antagonistic interaction, respectively)” and the “MIC of adjuvant in combo” value ([2]; in combination with Aztreonam) was “(8)”. For the same compound, the “MIC of adjuvant in combo” value ([2]; in combination with Ceftazidime) was “(8)”, the “MIC of adjuvant in combo” value ([2]; in combination with Chloramphenicol) was “(4)” and the “MIC of adjuvant in combo” value ([2]; in combination with Ciprofloxacin) was “(8)”. The “MIC of adjuvant in combo” value ([2]; in combination with Clindamycin) was “(8)”, the “MIC of adjuvant in combo” value ([2]; in combination with Doripenem) was “(8)” and the “MIC of adjuvant in combo” value ([2]; in combination with Doxycycline) was “(8)”. For the same compound, the “MIC of adjuvant in combo” value ([2]; in combination with Fosfomycin) was “(8)”, the “MIC of adjuvant in combo” value ([2]; in combination with Gentamicin) was “(0.25)” and the “MIC of adjuvant in combo” value ([2]; in combination with Linezolid) was “(8)”. For the same compound, the “MIC of adjuvant in combo” value ([2]; in combination with Meropenem) was “(8)”, the “MIC of adjuvant in combo” value ([2]; in combination with Minocycline) was “(8)” and the “MIC of adjuvant in combo” value ([2]; in combination with Moxifloxacin) was “(8)”. For the same compound, the “MIC of adjuvant in combo” value ([2]; in combination with Novobiocin) was “(4)”, the “MIC of adjuvant in combo” value ([2]; in combination with Piperacillin) was “(8)” and the “MIC of adjuvant in combo” value ([2]; in combination with Pleuromutilin) was “(8)”. For the same compound, the “MIC of adjuvant in combo” value ([2]; in combination with Rifampicin) was “(4)”, the “MIC of adjuvant in combo” value ([2]; in combination with Streptomycin) was “(8)” and the “MIC of adjuvant in combo” value ([2]; in combination with Tobramycin) was “(0.25)”. The “MIC of adjuvant in combo” value ([2]; in combination with Trimethoprim) was “(8)” and the “MIC of adjuvant in combo” value ([2]; in combination with Vancomycin) was “(8)”.

With colistin [reference compound] the “% Hemolysis at 512 μg/mL of polymyxin” value [1] was 1.6 ± 0.5%, the “MHC5, minimum concentration that resulted in 5% red blood cell hemolysis” value [1] was greater than 512 µg/mL and the hemolytic activity ([1]; up to the highest concentration tested of 512 μg/mL) was “no hemolytic activity”.
